# In patent US20240199613A1 (TAKEDA PHARMACEUTICAL COMPANY LIMITED, priority 2021, published 2024):
# Experiments:
# [1] = biological target: T1, plasma kallikrein (Homo sapiens, UniProt P03952); experiment: Neat human plasma assay: contact pathway-activated (FXIIa) plasma, PFR-AMC substrate; assay type: biochemical; conditions: citrated human plasma (78% final), 10 nM human FXIIa, 100 μM PFR-AMC, room temperature
# T1 construct: from tissue; host or cells: sodium citrate collected human plasma (78% final)
# T1 sequence (P03952 391-638 limits assumed): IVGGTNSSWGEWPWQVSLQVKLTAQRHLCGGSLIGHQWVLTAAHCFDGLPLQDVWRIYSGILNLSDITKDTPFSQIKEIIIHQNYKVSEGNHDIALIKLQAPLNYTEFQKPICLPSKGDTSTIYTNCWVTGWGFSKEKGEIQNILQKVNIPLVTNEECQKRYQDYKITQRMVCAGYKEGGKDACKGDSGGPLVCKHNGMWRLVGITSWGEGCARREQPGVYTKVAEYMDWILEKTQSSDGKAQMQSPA
# T1 sequence (P03952 20-390 partner limits assumed): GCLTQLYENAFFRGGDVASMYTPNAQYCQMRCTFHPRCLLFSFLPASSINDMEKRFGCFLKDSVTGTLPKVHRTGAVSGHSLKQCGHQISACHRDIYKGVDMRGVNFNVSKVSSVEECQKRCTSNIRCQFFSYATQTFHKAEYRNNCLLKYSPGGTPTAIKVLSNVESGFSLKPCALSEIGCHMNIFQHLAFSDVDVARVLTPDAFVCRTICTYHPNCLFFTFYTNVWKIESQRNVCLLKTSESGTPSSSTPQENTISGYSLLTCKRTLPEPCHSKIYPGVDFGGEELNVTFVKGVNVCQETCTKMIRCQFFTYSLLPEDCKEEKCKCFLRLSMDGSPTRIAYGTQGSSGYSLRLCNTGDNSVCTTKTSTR
# Procedure, shortened: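 Compounds spiked into citrated human or rat plasma (78% final), or plasma taken from orally or IV dosed rats, activated with 10 nM human FXIIa; 100 μM PFR-AMC cleavage read at 360/480 nm for 5 min, room temperature. Rates vs concentration fit to 4-parameter IC50/IC90 equation.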
# [2] = biological target: human activated kallikrein enzyme (Homo sapiens, UniProt P03952); experiment: Inhibition of activated plasma kallikrein, fluorogenic peptide substrate (PFR-AMC) assay, 500 pM enzyme format; assay type: biochemical; conditions: 500 pM activated kallikrein, 300 uM PFR-AMC, 30 min preincubation, 10 min reaction, room temperature; read-out: Primary Dose Response Assay: Average EC50
# Chain of human activated kallikrein enzyme (P03952 391-638 limits assumed): as the sequence (P03952 391-638 limits assumed) above
# Chain of human activated kallikrein enzyme (P03952 20-390 partner limits assumed): as the sequence (P03952 20-390 partner limits assumed) above
# Procedure, shortened: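 500 pM enzyme preincubated 30 min at room temperature with inhibitor in 20 mM Tris pH 7.5, 150 mM NaCl, 1 mM EDTA, 0.1% PEG-400, 0.1% Triton X-100. Reaction started with 300 uM PFR-AMC and run 10 min at room temperature. Fluorescence read at 380 nm excitation/460 nm emission.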
IC90 [1] [nM],EC50 [2] [nM],SMILES
1500 to 10000,1 to 10,"Cc1ccnc([C@H]2C[C@@H]2c2ccc3ccc(NCc4cn5cc(C6CC6)nc(N6CC(=O)N(C)C6=O)c5n4)cc3n2)n1 (racemic) [Example 106, rac-1-(6-cyclopropyl-2-(((2-((1S*,2S*)-2-(4-methylpyrimidin-2-yl)cyclopropyl)quinolin-7-yl)amino)methyl)imidazo[1,2-a]pyrazin-8-yl)-3-methylimidazolidine-2,4-dione]"
400 to 1500,1 to 10,"Cc1ccnc([C@H]2C[C@@H]2c2cc(N3CC4(COC4)C3)c3ccc(NC(C)c4cn5cc(C6CC6)cc(N6CC(=O)N(C)C6=O)c5n4)cc3n2)n1 (stereo partly drawn) [Example 99, 1-(6-cyclopropyl-2-(1-((2-((1S,2S)-2-(4-methylpyrimidin-2-yl)cyclopropyl)-4-(2-oxa-6-azaspiro[3.3]heptan-6-yl)quinolin-7-yl)amino)ethyl)imidazo[1,2-a]pyridin-8-yl)-3-methylimidazolidine-2,4-dione]"
≤ 400,≤ 1,"Cc1ccnc([C@H]2C[C@@H]2c2cc(N(C)C)c3ccc(NCc4cn5cc(C6CC6)cc(N6CC(=O)N(C)C6=O)c5n4)cc3n2)n1 (racemic) [Example 29, rac-1-(6-cyclopropyl-2-(((4-(dimethylamino)-2-((1S*,2S*)-2-(4-methylpyrimidin-2-yl)cyclopropyl)quinolin-7-yl)amino)methyl)imidazo[1,2-a]pyridin-8-yl)-3-methylimidazolidine-2,4-dione]"
